The values that follow come from ChEMBL document CHEMBL1201862, “PubChem BioAssay data set” (2004).

The source made the active and inactive calls.

Test [1] addresses Hepatocyte nuclear factor 4-alpha (Homo sapiens, UniProt P41235). In kind it is functional, cell-based.
Test [2] deals with T1, Sentrin-specific protease 8 (Homo sapiens, UniProt Q96LD8).
T1 sequence (Q96LD8 whole entry): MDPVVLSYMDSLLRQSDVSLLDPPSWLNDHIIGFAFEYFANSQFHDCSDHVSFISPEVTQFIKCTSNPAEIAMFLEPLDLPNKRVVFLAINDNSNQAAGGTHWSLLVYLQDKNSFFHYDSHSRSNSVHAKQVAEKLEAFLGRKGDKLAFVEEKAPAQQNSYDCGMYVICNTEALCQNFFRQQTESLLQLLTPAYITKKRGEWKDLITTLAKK
In kind it is functional.

For test [3], the target named is T1, Sentrin-specific protease 8. In kind it is functional. This is another data set of the same source.
Test [4] can be described thus: bead-based luminescence quenchers, dual-tagged ARNT – biochemical, AlphaScreen, cherry-pick, artefact control for ARNT-TACC3 interaction inhibitor project, dose response (AID 651705).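 Also: AlphaScreen bead proximity signal that flags compounds interfering with the detection technology; potency reflects signal decrease which marks the compound as an assay artifact.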 It counts as functional.
The target in test [5] is T2, Tyrosine-protein phosphatase non-receptor type 22 (Homo sapiens, UniProt Q9Y2R2).
T2 sequence (Q9Y2R2 whole entry): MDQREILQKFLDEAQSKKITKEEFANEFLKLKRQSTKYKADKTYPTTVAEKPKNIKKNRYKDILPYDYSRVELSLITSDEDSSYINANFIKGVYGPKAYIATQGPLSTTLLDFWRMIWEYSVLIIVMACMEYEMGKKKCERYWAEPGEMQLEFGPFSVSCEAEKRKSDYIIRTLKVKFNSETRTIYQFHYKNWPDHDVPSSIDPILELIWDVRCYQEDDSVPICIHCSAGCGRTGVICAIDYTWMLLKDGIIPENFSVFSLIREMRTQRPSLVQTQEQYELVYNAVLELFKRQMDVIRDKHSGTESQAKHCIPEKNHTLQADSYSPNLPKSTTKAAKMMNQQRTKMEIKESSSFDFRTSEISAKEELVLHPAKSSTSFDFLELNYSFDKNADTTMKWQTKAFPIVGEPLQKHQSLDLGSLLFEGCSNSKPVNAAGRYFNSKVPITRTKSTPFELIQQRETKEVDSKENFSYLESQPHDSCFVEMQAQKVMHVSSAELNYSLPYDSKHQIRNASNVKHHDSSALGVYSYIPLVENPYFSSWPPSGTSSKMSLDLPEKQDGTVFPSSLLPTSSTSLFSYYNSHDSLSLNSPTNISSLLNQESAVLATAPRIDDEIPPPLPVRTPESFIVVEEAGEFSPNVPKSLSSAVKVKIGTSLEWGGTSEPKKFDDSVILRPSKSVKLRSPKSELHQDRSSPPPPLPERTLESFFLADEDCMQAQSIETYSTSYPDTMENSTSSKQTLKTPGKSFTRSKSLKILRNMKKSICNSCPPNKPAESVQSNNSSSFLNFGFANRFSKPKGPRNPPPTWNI
Nature of the test: PTPN22 enzyme inhibitors – biochemical, fluorescence, LYP catalytic domain, selectivity assay for LMPTP inhibitor project, dose response (AID 652006). It counts as functional. The conditions noted are these: read-out: IC50_Mean.

Test [6] addresses Tyrosine-protein phosphatase non-receptor type 11 (Homo sapiens, UniProt Q06124). Nature of the test: PTPN11 enzyme inhibitors – biochemical, selectivity assay for STEP inhibitor project, dose response (AID 602367). It counts as functional. The conditions noted are these: read-out: IC50_Mean.
In test [7] the target is Tyrosine-protein phosphatase non-receptor type 5 (Homo sapiens, UniProt P54829). Kind of test: PTPN5 enzyme inhibition – biochemical, fluorescence intensity, uHTS hits, confirmation (AID 602372). The following applies: read-out: IC50_Mean. In kind it is functional.
Test [8] addresses T3, Low molecular weight phosphotyrosine protein phosphatase (Homo sapiens, UniProt P24666).
T3 sequence (P24666 whole entry): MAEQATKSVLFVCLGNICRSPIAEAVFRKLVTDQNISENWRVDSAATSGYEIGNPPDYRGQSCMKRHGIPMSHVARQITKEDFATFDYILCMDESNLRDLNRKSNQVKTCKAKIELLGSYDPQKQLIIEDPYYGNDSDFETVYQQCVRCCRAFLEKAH
It counts as functional. The following applies: read-out: IC50_Mean.

The target of test [9] is Dual specificity protein phosphatase 3 (Homo sapiens, UniProt P51452). Kind of test: VHR phosphatase inhibition, dose response, selectivity assay for STEP inhibitor project, biochemical (AID 602374). The conditions noted are these: read-out: IC50_Mean. It counts as functional.
Test [10] concerns the target T4, Carboxy-terminal domain RNA polymerase II polypeptide A small phosphatase 1 (Homo sapiens, UniProt Q9GZU7).
T4 sequence (Q9GZU7 whole entry): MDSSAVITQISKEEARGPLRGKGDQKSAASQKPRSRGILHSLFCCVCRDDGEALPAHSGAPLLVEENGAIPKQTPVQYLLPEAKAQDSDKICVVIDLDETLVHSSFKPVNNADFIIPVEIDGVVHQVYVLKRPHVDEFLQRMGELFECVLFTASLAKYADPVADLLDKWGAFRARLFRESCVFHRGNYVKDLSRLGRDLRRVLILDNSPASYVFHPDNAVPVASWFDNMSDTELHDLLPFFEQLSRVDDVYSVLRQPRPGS
Nature of the test: CTDSP1 inhibitors, concentration-response, biochemical, absorbance readout, ultra-high-throughput screen actives (AID 540297). In kind it is functional.

Test [11] has as its target T3, Low molecular weight phosphotyrosine protein phosphatase. It counts as functional. The following applies: read-out: IC50_Mean. This is another data set of the same source.
Test [12] addresses Adenosylmethionine-8-amino-7-oxononanoate aminotransferase (Mycobacterium tuberculosis, UniProt P9WQ81). Kind of test: Mycobacterium tuberculosis BioA enzyme inhibitor Measured in Biochemical System Using Plate Reader - 2163-02_Inhibitor_Dose_CherryPick_Activity. It counts as functional, Mycobacterium tuberculosis UT205.
A short description of test [13]: decrease of insulin promoter-GFP reporter – imaging, high-content screening, mouse beta cells (AID 1628). In kind it is functional. The conditions noted are these: MIN6.
Test [14] deals with T5, High affinity choline transporter 1 (Homo sapiens, UniProt Q9GZV3).
T5 sequence (Q9GZV3 whole entry): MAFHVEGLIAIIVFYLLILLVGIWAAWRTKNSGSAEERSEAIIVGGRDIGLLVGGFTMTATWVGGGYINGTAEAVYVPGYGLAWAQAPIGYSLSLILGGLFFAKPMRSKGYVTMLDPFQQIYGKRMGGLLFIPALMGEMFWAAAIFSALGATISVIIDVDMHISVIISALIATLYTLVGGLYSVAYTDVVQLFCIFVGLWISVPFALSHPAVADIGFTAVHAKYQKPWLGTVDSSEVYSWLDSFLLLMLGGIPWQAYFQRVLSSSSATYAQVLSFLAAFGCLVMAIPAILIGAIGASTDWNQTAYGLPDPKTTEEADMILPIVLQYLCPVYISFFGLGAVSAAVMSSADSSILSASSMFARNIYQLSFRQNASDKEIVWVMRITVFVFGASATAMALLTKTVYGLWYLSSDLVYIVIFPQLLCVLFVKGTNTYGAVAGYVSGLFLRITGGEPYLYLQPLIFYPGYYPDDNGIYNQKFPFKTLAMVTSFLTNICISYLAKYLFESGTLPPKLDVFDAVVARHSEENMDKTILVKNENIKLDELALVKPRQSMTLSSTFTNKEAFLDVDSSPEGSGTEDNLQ
Nature of the test: human choline transporter blockers, potency – cell-based, 5-point CRC, membrane potential dye, dose response (AID 504840). In kind it is functional.

The target of test [15] is Ras and Rab interactor 1/Tyrosine-protein kinase ABL1 (Homo sapiens, UniProt P00519+Q13671). In kind it is functional.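 Also: biochemical TR-FRET dose-response test measuring inhibition of binding between Rin1 and Abl proteins.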
Test [16] in a line: MIN6 cell viability loss – mouse insulinoma, cytotoxicity control, dose response (AID 2122).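 Also: confirmatory high-throughput counterscreen run to flag cytotoxic compounds.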 It counts as functional.
The target of test [17] is T5, High affinity choline transporter 1. Kind of test: human choline transporter blockers, potency – cell-based, 10-point CRC, membrane potential dye, dose response (AID 588401).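 Also: membrane potential dye fluorescence of choline-evoked depolarization via CHT.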 It counts as functional.
Test [18] has as its system HEK293. Nature of the test: membrane integrity loss in HEK cells – cell-based, fluorescence, cytotoxicity control for IDE activator project, dose response (AID 588440).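 Also: cytotoxicity by LDH release measuring loss of membrane integrity.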 In kind it is functional. The conditions noted are these: Homo sapiens.
The target of test [19] is T6, Insulin-degrading enzyme (Homo sapiens, UniProt P14735).
T6 sequence (P14735 whole entry): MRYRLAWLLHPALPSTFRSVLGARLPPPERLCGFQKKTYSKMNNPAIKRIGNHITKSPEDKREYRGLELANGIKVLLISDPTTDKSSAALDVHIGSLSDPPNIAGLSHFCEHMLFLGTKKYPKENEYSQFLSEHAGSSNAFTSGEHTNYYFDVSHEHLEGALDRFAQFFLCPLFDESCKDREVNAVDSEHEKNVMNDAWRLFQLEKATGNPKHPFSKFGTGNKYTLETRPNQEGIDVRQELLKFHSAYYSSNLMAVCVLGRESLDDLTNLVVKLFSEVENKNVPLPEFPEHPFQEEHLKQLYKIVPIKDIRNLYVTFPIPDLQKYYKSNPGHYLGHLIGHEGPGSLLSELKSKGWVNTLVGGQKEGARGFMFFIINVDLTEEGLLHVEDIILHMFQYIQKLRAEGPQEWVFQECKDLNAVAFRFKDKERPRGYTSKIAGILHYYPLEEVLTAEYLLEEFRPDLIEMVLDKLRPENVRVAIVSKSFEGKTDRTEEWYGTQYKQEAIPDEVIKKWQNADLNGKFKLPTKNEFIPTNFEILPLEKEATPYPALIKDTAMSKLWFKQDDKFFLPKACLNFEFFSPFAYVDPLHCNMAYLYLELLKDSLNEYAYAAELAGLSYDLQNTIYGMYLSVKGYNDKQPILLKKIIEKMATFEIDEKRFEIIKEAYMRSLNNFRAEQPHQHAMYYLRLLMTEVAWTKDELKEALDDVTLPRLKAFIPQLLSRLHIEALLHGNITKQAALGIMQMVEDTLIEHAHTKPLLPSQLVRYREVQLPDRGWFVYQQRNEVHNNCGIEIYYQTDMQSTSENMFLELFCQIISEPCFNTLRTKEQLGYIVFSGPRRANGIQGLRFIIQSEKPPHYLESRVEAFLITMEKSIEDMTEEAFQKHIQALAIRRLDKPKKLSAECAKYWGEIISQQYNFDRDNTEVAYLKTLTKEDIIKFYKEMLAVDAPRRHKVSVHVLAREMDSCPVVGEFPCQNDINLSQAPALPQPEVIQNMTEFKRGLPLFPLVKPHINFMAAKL
Kind of test: cellular IDE activation of Abeta substrate cleavage – fluorescence polarization, HEK cells, dose response (AID 588439). In kind it is functional, cell-based. A general note: Polarisation of emitted light reports the rotation of a fluorescent probe.

Test [20] is described as follows: A Cell Based Secondary Assay To Explore Cytotoxicity of Compounds that Sensitize Mycobacterium Tuberculosis to Beta-Lactam Antibiotics. In kind it is functional.
In test [21] the target is T6, Insulin-degrading enzyme. Nature of the test: recombinant IDE activation, cell-free – biochemical, fluorescence polarization, counter-screen for IDE activator project, dose response (AID 588681).
Test [22] deals with HEK293. Nature of the test: optical interference in Abeta FP readout, dose response, artefact control for IDE activator project, biochemical, fluorescence polarization (AID 588442). It counts as functional, cell-based. The conditions noted are these: Homo sapiens.
Another test deals with Melanocortin receptor 4 (Homo sapiens, UniProt P32245). It counts as functional, cell-based.
A short description of test [23]: inhibition of ARNT PAS-B/TACC3 complex formation – biochemical, AlphaScreen, cherry-picked samples, confirmation (AID 651703).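 Also: His-tagged ARNT PAS-B domain paired with GST-TACC3 E629A dimer coactivator fragment; potency of inhibitors that break up the complex and lower AlphaScreen signal.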 In kind it is functional, Homo sapiens. A general note: Bead proximity is the source of the signal in Alpha formats.
The nature of test [24]: blockers of CAL PDZ–TMR peptide complex – biochemical, fluorescence polarization, untagged CAL PDZ, cherry-pick, set 2, dose response (AID 602254). It counts as functional.

Sequence of Adenosylmethionine-8-amino-7-oxononanoate aminotransferase (P9WQ81 whole entry): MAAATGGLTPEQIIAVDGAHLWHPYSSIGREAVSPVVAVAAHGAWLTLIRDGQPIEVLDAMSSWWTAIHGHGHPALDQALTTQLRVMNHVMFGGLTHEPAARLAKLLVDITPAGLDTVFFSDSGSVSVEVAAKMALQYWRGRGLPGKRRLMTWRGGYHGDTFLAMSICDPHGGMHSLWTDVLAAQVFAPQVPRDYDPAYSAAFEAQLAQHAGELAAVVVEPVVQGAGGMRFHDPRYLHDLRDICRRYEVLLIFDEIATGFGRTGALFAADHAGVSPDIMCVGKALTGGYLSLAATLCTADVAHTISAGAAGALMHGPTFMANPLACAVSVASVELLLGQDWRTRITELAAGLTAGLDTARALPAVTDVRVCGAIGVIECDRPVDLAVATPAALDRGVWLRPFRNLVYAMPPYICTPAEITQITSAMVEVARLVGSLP
Sequence of Dual specificity protein phosphatase 3 (P51452 whole entry, the tested form may be a part): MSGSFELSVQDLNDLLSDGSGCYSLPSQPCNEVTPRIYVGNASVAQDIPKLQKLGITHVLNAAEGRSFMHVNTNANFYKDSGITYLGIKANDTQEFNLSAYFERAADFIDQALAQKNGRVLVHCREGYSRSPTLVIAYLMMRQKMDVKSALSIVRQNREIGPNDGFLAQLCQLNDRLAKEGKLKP
Sequence of Melanocortin receptor 4 (P32245 whole entry, the tested form may be a part): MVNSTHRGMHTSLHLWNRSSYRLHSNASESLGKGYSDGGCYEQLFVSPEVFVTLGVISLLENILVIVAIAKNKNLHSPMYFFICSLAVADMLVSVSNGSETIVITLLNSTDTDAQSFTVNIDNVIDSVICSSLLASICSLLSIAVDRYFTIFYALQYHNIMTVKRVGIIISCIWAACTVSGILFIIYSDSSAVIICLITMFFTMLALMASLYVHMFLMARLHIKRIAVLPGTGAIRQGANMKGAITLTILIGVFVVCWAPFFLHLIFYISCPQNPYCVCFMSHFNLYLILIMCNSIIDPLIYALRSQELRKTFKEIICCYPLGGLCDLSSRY
Sequence of Tyrosine-protein phosphatase non-receptor type 5 (P54829 whole entry): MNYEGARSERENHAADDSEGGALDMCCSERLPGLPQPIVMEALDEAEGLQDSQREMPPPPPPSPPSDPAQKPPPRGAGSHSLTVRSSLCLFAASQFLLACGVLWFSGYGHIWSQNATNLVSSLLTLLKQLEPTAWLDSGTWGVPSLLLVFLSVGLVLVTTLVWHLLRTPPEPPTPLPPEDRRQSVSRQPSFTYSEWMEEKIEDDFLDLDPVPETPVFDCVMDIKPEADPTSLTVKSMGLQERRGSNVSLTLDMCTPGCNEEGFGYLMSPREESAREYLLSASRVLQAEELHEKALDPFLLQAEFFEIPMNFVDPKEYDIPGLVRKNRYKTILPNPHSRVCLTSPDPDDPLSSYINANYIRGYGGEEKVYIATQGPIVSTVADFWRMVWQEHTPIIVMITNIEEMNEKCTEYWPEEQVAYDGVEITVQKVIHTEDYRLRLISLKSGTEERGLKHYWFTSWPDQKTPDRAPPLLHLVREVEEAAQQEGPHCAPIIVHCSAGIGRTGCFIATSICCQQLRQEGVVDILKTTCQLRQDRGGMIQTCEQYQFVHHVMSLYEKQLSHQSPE
Sequence of Tyrosine-protein phosphatase non-receptor type 11 (Q06124 whole entry): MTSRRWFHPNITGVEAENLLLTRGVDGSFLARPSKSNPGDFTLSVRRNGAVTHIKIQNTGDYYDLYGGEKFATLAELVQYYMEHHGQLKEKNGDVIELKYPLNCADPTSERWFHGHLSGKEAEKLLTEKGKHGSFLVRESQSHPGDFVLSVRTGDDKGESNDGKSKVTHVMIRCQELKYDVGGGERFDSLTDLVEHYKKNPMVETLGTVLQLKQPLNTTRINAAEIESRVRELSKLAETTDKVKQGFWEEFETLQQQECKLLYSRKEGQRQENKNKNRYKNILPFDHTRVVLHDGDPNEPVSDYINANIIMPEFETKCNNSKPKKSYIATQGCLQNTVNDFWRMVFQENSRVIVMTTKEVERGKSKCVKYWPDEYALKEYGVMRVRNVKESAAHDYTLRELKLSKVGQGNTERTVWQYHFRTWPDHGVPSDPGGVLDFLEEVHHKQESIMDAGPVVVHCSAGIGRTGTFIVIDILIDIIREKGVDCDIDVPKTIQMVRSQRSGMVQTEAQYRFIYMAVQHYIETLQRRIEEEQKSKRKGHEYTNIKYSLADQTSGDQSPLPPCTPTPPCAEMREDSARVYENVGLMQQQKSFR
Sequence of Hepatocyte nuclear factor 4-alpha (P41235 whole entry): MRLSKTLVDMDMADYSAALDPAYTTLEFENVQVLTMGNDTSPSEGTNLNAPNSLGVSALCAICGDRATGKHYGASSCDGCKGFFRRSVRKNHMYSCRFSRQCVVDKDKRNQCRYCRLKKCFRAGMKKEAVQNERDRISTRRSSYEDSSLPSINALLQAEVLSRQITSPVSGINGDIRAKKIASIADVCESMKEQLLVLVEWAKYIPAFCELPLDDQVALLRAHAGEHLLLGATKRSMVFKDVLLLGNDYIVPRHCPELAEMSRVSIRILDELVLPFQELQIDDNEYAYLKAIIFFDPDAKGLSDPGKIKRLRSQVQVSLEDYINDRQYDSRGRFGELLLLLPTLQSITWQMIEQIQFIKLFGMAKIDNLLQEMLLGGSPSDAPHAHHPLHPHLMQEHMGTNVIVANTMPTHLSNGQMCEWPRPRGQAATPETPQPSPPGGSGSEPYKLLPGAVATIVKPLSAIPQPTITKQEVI
Sequence of Ras and Rab interactor 1/Tyrosine-protein kinase ABL1 (P00519 whole entry): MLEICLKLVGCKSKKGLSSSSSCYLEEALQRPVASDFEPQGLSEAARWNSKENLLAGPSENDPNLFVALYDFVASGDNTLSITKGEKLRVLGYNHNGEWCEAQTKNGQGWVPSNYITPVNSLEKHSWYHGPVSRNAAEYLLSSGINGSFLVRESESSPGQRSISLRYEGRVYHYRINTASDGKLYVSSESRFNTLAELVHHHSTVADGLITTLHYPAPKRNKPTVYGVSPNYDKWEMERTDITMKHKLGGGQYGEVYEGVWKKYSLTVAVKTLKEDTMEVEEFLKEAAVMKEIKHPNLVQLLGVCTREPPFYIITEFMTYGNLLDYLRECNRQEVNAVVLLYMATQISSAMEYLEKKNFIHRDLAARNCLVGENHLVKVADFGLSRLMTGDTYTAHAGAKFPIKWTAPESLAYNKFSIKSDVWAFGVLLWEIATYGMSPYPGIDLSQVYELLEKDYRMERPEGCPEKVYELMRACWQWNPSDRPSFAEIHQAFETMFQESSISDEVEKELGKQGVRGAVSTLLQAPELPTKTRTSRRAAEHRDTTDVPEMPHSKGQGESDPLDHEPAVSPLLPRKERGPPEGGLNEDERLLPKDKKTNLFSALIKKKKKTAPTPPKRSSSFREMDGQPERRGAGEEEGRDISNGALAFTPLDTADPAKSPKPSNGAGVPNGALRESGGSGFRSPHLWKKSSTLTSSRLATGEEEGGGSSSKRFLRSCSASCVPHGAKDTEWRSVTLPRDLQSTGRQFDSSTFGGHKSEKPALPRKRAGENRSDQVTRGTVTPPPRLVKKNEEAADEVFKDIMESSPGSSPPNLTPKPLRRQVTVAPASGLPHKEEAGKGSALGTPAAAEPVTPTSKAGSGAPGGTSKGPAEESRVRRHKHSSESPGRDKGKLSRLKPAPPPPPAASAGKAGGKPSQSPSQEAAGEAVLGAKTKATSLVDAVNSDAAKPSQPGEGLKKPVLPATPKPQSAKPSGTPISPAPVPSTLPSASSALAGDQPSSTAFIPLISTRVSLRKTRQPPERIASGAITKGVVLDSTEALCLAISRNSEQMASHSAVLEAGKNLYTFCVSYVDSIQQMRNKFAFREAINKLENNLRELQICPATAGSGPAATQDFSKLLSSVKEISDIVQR
Sequence of Ras and Rab interactor 1/Tyrosine-protein kinase ABL1 (Q13671 whole entry): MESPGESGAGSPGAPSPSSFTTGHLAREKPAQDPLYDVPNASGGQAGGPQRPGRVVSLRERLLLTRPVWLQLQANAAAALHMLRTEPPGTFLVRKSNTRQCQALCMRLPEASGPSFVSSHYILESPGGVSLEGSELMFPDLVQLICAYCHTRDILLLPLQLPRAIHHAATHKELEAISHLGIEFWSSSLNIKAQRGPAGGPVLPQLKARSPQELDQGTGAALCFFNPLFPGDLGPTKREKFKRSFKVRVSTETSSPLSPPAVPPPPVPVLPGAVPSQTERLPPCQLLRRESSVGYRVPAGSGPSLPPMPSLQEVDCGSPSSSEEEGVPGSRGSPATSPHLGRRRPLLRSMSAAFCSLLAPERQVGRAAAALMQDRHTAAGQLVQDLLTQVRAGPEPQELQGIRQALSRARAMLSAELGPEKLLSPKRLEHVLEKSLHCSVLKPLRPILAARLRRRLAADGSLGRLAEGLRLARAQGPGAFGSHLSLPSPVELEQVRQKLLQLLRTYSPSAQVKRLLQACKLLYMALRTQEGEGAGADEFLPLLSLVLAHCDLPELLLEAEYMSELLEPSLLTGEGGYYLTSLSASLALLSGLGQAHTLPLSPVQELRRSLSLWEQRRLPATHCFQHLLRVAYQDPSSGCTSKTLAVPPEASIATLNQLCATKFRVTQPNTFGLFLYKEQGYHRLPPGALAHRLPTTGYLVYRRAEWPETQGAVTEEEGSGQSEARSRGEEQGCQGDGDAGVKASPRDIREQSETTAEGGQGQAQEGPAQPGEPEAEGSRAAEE

Regarding `CC(C)(C)NC(=O)C(c1ccc(C(F)(F)F)cc1)n1c(=O)c(-c2ccco2)nc2ccccc21` (stereo unspecified), in [1], the IC50 is 1.81 µM (active).
The term AC50 denotes the concentration giving half of the maximal activity seen. As to `CN1CC[C@@]2(C)c3cc(O)ccc3N(C)[C@@H]12`, the IC50 is 8.51 µM (active) in test [2] and 3.53 µM (active) in [3]. Further, in [4], the AC50 was 97.2 µM (active).
Take `O=C(N/N=C/c1ccc(OC(=O)c2cccs2)cc1)c1cccc(F)c1`: the IC50 is 24.9 µM (inactive) in test [5]; 1.37 µM (active) in test [6]; 9.39 µM (active) in [7]; 17.2 µM (active) in [8]; 2.45 µM (active) in test [9]; 3.55 µM (active) in test [10]. Besides, in test [11], the IC50 was 11.2 µM (active).
`CC(=O)c1ccc(C(=O)NC2CCCN(Cc3ccccc3F)C2)s1` (stereo unspecified): the concentration at half-maximal activity (AC50) in test [12] is 4.26 µM (active).
As for `CCOC(=O)N1CCN(C(=O)C2CCN(c3ncnc4c3sc3cccc(F)c34)CC2)CC1`, the IC50 in test [13] is 1.49 µM (active); in [14], 13.8 µM (active); in test [15], 14.2 µM (inactive); in [16] it was 1.05 µM (active).
As to `CCn1c(SCCC(C)C)nnc1-c1c[nH]c2ccccc12`, the figures for the IC50 in [14] and in test [17] were 0.955 µM (active) and 2.41 µM (active), respectively.
By EC50 is commonly meant the midpoint of the concentration-response curve. As usually defined, the CC50 is the concentration at which the toxic effect on the cells reaches its halfway point. Take `Cc1cc(C)c2sc(N(CCCN(C)C)C(=O)COc3ccc(Cl)cc3)nc2c1`: the IC50 in the test with HEK293 [18] is 26.2 µM (inactive). Further, the EC50 at Insulin-degrading enzyme [19] is > 54.7 µM (inactive); at Insulin-degrading enzyme [21], > 54.7 µM (inactive); with HEK293 [22], > 55.9 µM (inactive); at Melanocortin receptor 4 it was > 89.2 µM (inactive). Further, the 50% cytotoxic concentration (CC50) in test [20] was > 40 µM (active).
Regarding `C/C=C/c1ccc([C@H]2[C@@H](CO)N(Cc3ccccn3)[C@@H]2CNC(C)=O)cc1`, the AC50 in test [23] was 93.3 µM (active).
As to `COc1cc(NC(=O)C2CCCN(S(=O)(=O)c3cccc4nsnc34)C2)cc(OC)c1` (stereo unspecified), the AC50 in [24] was 118 µM (active).
